“And” between values parts separate entries of the source, which are not always exact repeats. Equal values may be shown once.
Experiments:
[1] = tested on: Human normal lung IMR90 fibroblasts; test: SMM-Seq detection of induced somatic SNVs in IMR90 cells treated with ENU; assay type: cell-based; details: for sSNVs frq / mutation spectra: CA count / mutation spectra: CG count / mutation spectra: CT count / mutation spectra: TA count / mutation spectra: TC count / mutation spectra: TG count: 72 hours; for sSNVs frq / sSNVs count: single biological replicate; for sSNVs frq: variants / qualified positions (SNV/1 Mb); for mutation spectra: CA count / mutation spectra: CG count / mutation spectra: CT count / mutation spectra: TA count / mutation spectra: TC count / mutation spectra: TG count: single replicate; for sSNVs count: harvested 72 hours after ENU
Procedure: Human normal lung IMR90 fibroblasts were maintained in 10% CO2 and 3% O2 atmosphere at 37° C. in DMEM (GIBCO, Grand Island, NY, USA) supplemented with 10% FBS (GIBCO). Twenty-four hours after cell seeding the culturing media was changed for media containing different doses of ENU. Cells were harvested 72 hours after ENU was applied. Complete media supplemented with ENU (SIGMA, San Louis, MO, USA) was prepared immediately before application from stock solution (100 mg/ml in 100% ethyl alcohol). Control cells were cultured in the presence of the vehicle only.
DNA from fibroblasts and hepatocytes was isolated using Quick-gDNA™ Blood MiniPrep (Zymo Research Corporation, Irvine, CA, USA) according to the manufacturer instructions and quantified using QUBIT kit (ThermoFisher Scientific, USA).
Genomic DNA was first fragmented by double digestion with restriction endonucleases AluI and MluCI (NEB, USA), overnight at 37° C. After purification using 1.5×AMPure XP beads (Beckman Coulter, USA) the fragmented DNA was further processed using NEBNext Ultra II DNA Library Prep Kit for Illumina (NEB). The adapter provided with the kit was replaced with custom adapter P5_HP6N. After double sided size-selection using AMPure XP beads (Beckman Coulter), resulting dumbbell-like product was quantified with QUBIT kit (ThermoFisher) and analyzed on 2100 Bioanalyzer instrument with High Sensitivity DNA kit (Agilent, USA). To prepare P5_HP6N adapter 86 μl of 10 μM solution of oligonucleotide 5′-TCTTC TACAGT NNNNNN AGATCG GAAGAG CACACG TCTGAA CTCCAG TC/ideoxyU/ACACTC TTTCCC TACACG ACGCTC TTCCGA TCT-3′ (IDT, USA) in 0.1×TE buffer was first exposed to 95° C. for 5′ followed by 37° C. for 5′ to form a hairpin. Next, to fill-in the extending 5′-end the self-annealed oligonucleotide was supplemented with 10 μl of Cutsmart buffer (NEB), 2 μl of 10 mM dNTPs mix (NEB) and 10 U of Klenow Fragment (3′→5′ exo-) (NEB) and incubated at 37° C. for 30′. After purification with QIAquick Nucleotide Removal Kit (QIAGEN, USA), the hairpins were digested with 10U of HpyCH4III (NEB) for 1 hour at 37° C., then purified again with QIAquick Nucleotide Removal Kit (QIAGEN) and eluted with 100 μl of EB to obtain ready to use adapter solution.
Next, for SMM sequencing library preparation samples were diluted based on assessed molar concentration. Assuming 150PE sequencing mode and 30 Gb of data per sample, the dilution coefficient (D) was calculated using the formula D=M*NA/1025, where M—sample concentration (pM); NA—Avogadro constant. Next, 1 μl of diluted sample was used as a template in pulse-RCA reaction. The pulse-RCA was performed in 20 μl reaction containing 1 μl of diluted sample, 1 μl of P5-RCA oligo (5′-[…]-3′), 25U (0.5 μl) of SD polymerase HS (BIORON Diagnostics GmbH, Germany), 2 μl of SD polymerase buffer, 1 μl of 10 mM dNTPs mix (NEB), 0.6 μl of 100 mM MgCl2, and 13.9 μl of water. The pulse-RCA program was set as follows: 92° C. for 2′ (1); 92° C. for 30″ (2); 60° C. for 30″ (3); 65° C. for 150″ (4); go to (3) 9 times; hold at 4° C. Product of amplification reaction was purified with […] AMPure XP beads and resuspended in 23 μl TE buffer. The entire volume of RC amplification was PCR amplified in 50 μl reaction volume containing 23 μl of RCA product, 25 μl of NEBNext Ultra II Q5 Master Mix and 1 μl of P5 and P7 dual index oligos. The PCR program was set as follows: 98° C. for 30″ (1); 98° C. for 10″ (2); 65° C. for 75″ (3); go to (2) 8 times (4); 65° C. for 5′ (5); 4° C. forever. The PCR product was purified with 0.7×AMPure XP beads and resuspended in 30 μl of TE buffer. After quantification with Qubit, samples were pooled and sequenced on Illumina NovaSeq instrument using 150 paired-end mode.
Conventional sequencing library was prepared by PCR amplification of adapter ligated samples in 30 μl reaction volume containing 11 μl of undiluted ligated sample, 2U of USER enzyme (NEB) 15 μl of NEBNext Ultra II Q5 Master Mix and 1 μl of P5 and P7 dual index oligos. […]

IMR90 cells = test: Cell death of IMR90 cells at the ENU doses used; assay type: cell-based, human; details: sub-lethal doses of ENU (25 and 50 μg/ml)
[2] = tested on: human primary mammary cells; test: SMM-SV somatic structural variant (SV) frequency after bleomycin; assay type: cell-based; details: two different doses of bleomycin, SMM-SV (FIG. 9C)
Text: As explained, SMM is capable of identifying SNVs and small indels, but not SVs. This is due to the overwhelming amount of chimeric DNA fragments created during library construction. For SMM-seq and other single-molecule assays the process of linking DNA fragments to the sequencing adapters also results in random ligation of DNA fragments to each other. The resulting chimeric sequences are not distinguishable from true SVs since both strands are identical and represent the same SV (FIG. 9A). To address this problem, we used transposase-mediated tagmentation, i.e., the initial step in library preparation where high molecular weight DNA is cleaved and tagged for analysis. While commonly used in library preparation, we used it here in a different, unexpected way. Indeed, as commonly used tagmentation generates priming sites for subsequent PCR which in turn is prone to produce artificial chimeras, giving a similar problem as other approaches. […] To validate SMM-SV we evaluated somatic SV frequency in human primary mammary cells treated with two different doses of bleomycin, a potent […] known to induce somatic SVs. […]

[3] = Cond E25 (ENU 25 μg/ml), IMR90 cells
[4] = Cond E50 (ENU 50 μg/ml), IMR90 cells
[5] = IMR90 cells upon ENU treatment, mutational spectra (FIG. 2C)

## CCN(N=O)C(N)=O [ENU, N-ethyl-N-nitrosourea]
[1]; [3]
  sSNVs frq: 0.411 and 0.3226 and 0.3595
  mutation spectra: CA count: 19 and 16 and 12
  mutation spectra: CG count: 7 and 8 and 4
  mutation spectra: CT count: 10 (2×) and 11
  mutation spectra: TA count: 13 and 10 and 16
  mutation spectra: TC count: 18 and 22 and 20
  mutation spectra: TG count: 9 and 12 and 7
  sSNVs count: 76 and 78 and 70
[1]; [4]
  sSNVs frq: 0.571 and 0.5406
  mutation spectra: CA count: 24 and 16
  mutation spectra: CG count: 2 and 6
  mutation spectra: CT count: 32 and 16
  mutation spectra: TA count: 38 and 20
  mutation spectra: TC count: 28 and 23
  mutation spectra: TG count: 17 and 9
  sSNVs count: 141 and 90
[1]; ENU 50 μg/ml, IMR90 cells
  increase of mutation frequency versus control: more than 2 fold
[1]; ENU 50 μg/ml, IMR90 cells, average±SD of three biological replicates, control 0.21±0.02, p=9.7*10-5
  mutation frequency: 0.54±0.03 SNV/1 Mb
[1]; [5]
  relative representation of AT/CG mutations versus untreated control cells: more than 2 times
  relative representation of AT/TA mutations versus untreated control cells: more than 2 times
IMR90 cells
  cell death: do not cause any noticeable cell death

## bleomycin
[2]
  somatic SV frequency: induced SVs in a dose-dependent manner

From patent US20250002972A1, “METHOD FOR MEASURING SOMATIC DNA MUTATION AND DNA DAMAGE PROFILES AND A […] SUITABLE THEREFORE” (Albert Einstein College of Medicine, priority 2021, published 2025)
